The test system of data set [1] is SW480 P3 (ATCC #CCL228) human colon carcinoma cells. Put plainly: Screening assay for enhancement of transient expression (β-galactosidase gene, liposomal transfection, 6-well plates). The settings on record: for G Factor (G14): Table 1, values without asterisk, days 4-14 after transfection; for X Factor / K Factor: Table 1; for X Factor: cumulative β-galactosidase vs control, first four days after transfection, compound at the mM given in the table; for K Factor: ratio of first order rate constants of change in expression, control vs compound; for effect on transient expression when present before or during the transfection step: polyanionic carbohydrates, liposomal transfection. In kind it is cell-based. An excerpt:
These parameters are called the “X” factor, the “G” factor, and the “K” factor. [formula]
This factor reflects the extent to which a chemical compound added to a transfected cell enhances stabilizes transient expression for the first four days following transfection. […] For example, if expression is doubled in the presence of a compound, […]. […] X may be calculated similarly when the agent in question is a mixture of more than one chemical compound.
Cumulative protein expression, i.e., the values for “A” and “C”, is measured by summing the values measured daily in aliquots of the cultured cells.
2. G factors. G factors differ from the X factor only with respect to the time period evaluated. For calculating a G factor, the amount of protein expressed is measured from days 4-7 or days 4-14, where day 0 is the day on which the foreign DNA is added to the cells. The subscripts denote which of the two time periods provided the basis for measurement. […] As for the X factor, [formula]
3. K factor. The K factor is the ratio of the rate constants for the change in the foreign DNA expression in control transfected cells and in cells exposed to a chemical compound of the subject invention. K is determined according to the following equation: [formula]
wherein “k(DNA)” is the first order rate constant for the change in concentration of the protein expressed from the transgenic DNA, which is expressing protein as a function of time, i.e., [formula]
Values for k(DNA) are derived by using a computer program that plots the log of the foreign protein concentration against time, using the results of transgenic protein measurements that begin about 24 hours after the foreign DNA has been added to the cell. […] However, the program calculates a “best fit” line for each data set, and determines the slope of that portion of the resulting line that corresponds to the period during which protein production is changing. […] Thus, the slope is calculated during this period of decline to provide values for k(DNA) and K that can be compared for the purpose of comparing the efficacy of different chemical compounds.
SW480 P3 (ATCC #CCL228) human colon carcinoma cells (typically, 1×10^6 cells) were plated in the wells of a 6-well tissue culture plate. The number of wells plated reflected the number of days post-transfection during which the experiment would proceed. Each well contained 1 ml of complete media from a 30 ml stock solution containing: 26.4 ml RPMI tissue culture medium, 4 mM L-glutamine, 3.0 ml fetal bovine serum, and 10 μg/ml gentamicin. Cells were cultured at 37° C. in a CO2 incubator with 10% CO2 for 24 hours after being plated, during which time the cells adhered to the plates.
After the 24 hour pre-incubation step, the transfection step was carried out by removing the RPMI and adding 900 μL OPTI-MEM® (Gibco) medium containing 2 μg of VR1412 DNA (Vical, Inc., San Diego, Calif.), which expresses the bacterial β-galactosidase gene under the control of a cytomegalovirus promoter, and 8 μg of a mixture of cationic lipid (1,2-dimyristyloxyproply-3-dimethyl-hydroxyethyl ammonium bromide (e.g., “DMRIE/DOPE”) mixed in equimolar proportions with dioleoylphosphatidylethanolamine) to yield a lipid:DNA molar ratio of 0.99:1. It should be noted that typical transient transfection protocols employ 10 μg DNA per 10^6 cells, but the protocol described here uses less DNA in order to reduce toxicity to the cells. The plates were then incubated for 4 hours at 37° C.
After the 4 hour incubation step, 100 μl of heat deactivated fetal bovine serum (to stop transfection), plus 12.0 μl of 50 mg/ml gentamicin were added to each well.

Data set [2] in a line: pH of aqueous solutions of the compounds. The class given is physicochemical. The settings on record: stock solutions prepared in culture media diluted with deionized water. The protocol:
The pH values shown in Table 1 were determined in aqueous solutions made by diluting stock solutions prepared in culture media with deionized water.

Setting [3] is: Table 1, values marked with asterisk, days 4-7 after transfection.

“And” between values parts separate entries of the source, which are not always exact repeats. Identical values can stand only once. “Also recorded” adds a separate entry of the source. Like-named read-outs stand apart in the source and are kept apart here. Marks after values point to notes of the source that are not given here.

`NC(=O)NC(CC(=O)O)C(=O)O` (racemic) [N-CARBAMYL-DL-ASPARTIC ACID]: in data set [1], the “G Factor (G14)” value is 115 and the “X Factor” value came out at 26. For the same compound, in data set [2], the “pH (H20)” value amounted to 4.19.
In the case of `Nc1cccc(S(=O)(=O)O)c1` [3-AMINO BENZENE SULFONIC ACID], in data set [1], the “G Factor (G14)” value was 32 and the “X Factor” value is given as −19. In addition, the “pH (H20)” value in data set [2] is listed as 3.8.
Taken in the same sequence, the figures for `Cn1cncc1C[C@H](N)C(=O)O` [3-METHYL-L-HISTIDINE] were 55, −15 and 7.39.
As to `Nc1ccc(C(=O)O)cc1` [4-AMINO-BENZOIC ACID], the “G Factor (G7)” value in data set [1] (setting [3]) was found to be 96. Moreover, in data set [1], the “G Factor (G14)” value was −12; the “X Factor” value is recorded as 52, 52; the “K Factor” value is 1, 1. Further, in data set [2], the “pH (H20)” value is 7.67.
On to `CCCCc1ccc(C(=O)O)cc1` [4-BUTYLBENZOIC ACID], for which the “pH (H20)” value in data set [2] came to 5.94.
In the case of `CCc1ccc(C(=O)O)cc1` [4-ETHYLBENZOIC ACID], the “K Factor” value in data set [1] was 1 and 2. The “pH (H20)” value in data set [2] is 6.
In the case of `CCCCCCc1ccc(C(=O)O)cc1` [4-HEXYLBENZOIC ACID], the “pH (H20)” value in data set [2] is listed as 6.13.
Turning to `CCCCCCCCc1ccc(C(=O)O)cc1` [4-OCTYL BENZOIC ACID], in data set [1], the “G Factor (G14)” value is recorded as −665 and the “X Factor” value is on record as −2314. For the same compound, the “pH (H20)” value in data set [2] was 7.45.
`CCCCCc1ccc(C(=O)O)cc1` [4-PENTYLBENZOIC ACID]: in data set [1], the “G Factor (G14)” value is −88 and the “X Factor” value is reported as −96.
On to `CNCC(O)c1ccc(O)c(O)c1` (stereo not drawn) [ADRENALINE], for which the “G Factor (G14)” value in data set [1] came to 68. In data set [1], the “X Factor” value amounted to 49. Moreover, the “pH (H20)” value in data set [2] was 10.29; in data set [2] (listed as adrenaline) it was ~10.
For the compound `N[C@@H](CC(=O)O)C(=O)O` [ASPARTIC ACID], the “G Factor (G7)” value in data set [1] (setting [3]) is listed as −17. For the same compound, the “G Factor (G14)” value in data set [1] is on record as −45. The “pH (H20)” value in data set [2] worked out at 5.75.
Take `O=C(O)c1ccccc1` [BENZOIC ACID]: in data set [1], the “G Factor (G14)” value is listed as 28, the “X Factor” value was −3.1 and the “K Factor” value amounted to 1. Further, in data set [2], the “pH (H20)” value is on record as 4.21.
As to `O=S(=O)(O)CCN(CCO)CCO` [BES], in data set [1], the “X Factor” value was 77 and 57; the “K Factor” value was 1, 1. For the same compound, the “pH (H20)” value in data set [2] was found to be 6.64.
With `NCCC(=O)N[C@@H](Cc1cnc[nH]1)C(=O)O` [CARNOSINE], in data set [1], the “G Factor (G14)” value was found to be 35 and the “X Factor” value was −8. For the same compound, in data set [2], the “pH (H20)” value worked out at 8.32.
`NC(=O)NCCC[C@H](N)C(=O)O` [CITRULLINE]: in data set [1], the “G Factor (G14)” value was 46, the “X Factor” value is recorded as 39 and the “K Factor” value is 1. Further, in data set [2], the “pH (H20)” value is 7.71.
In the case of `C/C1=C2/[N-][C@H]([C@H](CC(N)=O)[C@@]2(C)CCC(=O)NC[C@@H](C)OP(=O)([O-])O[C@H]2[C@@H](O)[C@@H](n3cnc4cc(C)c(C)cc43)O[C@@H]2CO)[C@]2(C)N=C(/C(C)=C3N=C(/C=C4N=C1[C@@H](CCC(N)=O)C\4(C)C)[C@@H](CCC(N)=O)[C@]\3(C)CC(N)=O)[C@@H](CCC(N)=O)[C@]2(C)CC(N)=O.[CH2-][C@H]1O[C@@H](n2cnc3c(N)ncnc32)[C@H](O)[C@@H]1O.[Co]` [COENZYME B12], in data set [1], the “G Factor (G14)” value was 51 and the “X Factor” value is −17.
On to `CN(CC(=O)O)C(=N)N` [CREATINE], for which, in data set [1], the “G Factor (G14)” value is 28 and the “X Factor” value is listed as 0.34. Moreover, the “pH (H20)” value in data set [2] is listed as 7.54.
Taken in the same sequence, the figures for `N[C@@H](CS)C(=O)O` [CYSTEINE] were −50, −35 and 7.24.
On to `N[C@@H](Cc1cc(I)c(O)c(I)c1)C(=O)O` [DIIODOTYROSINE], for which, in data set [1] (Table 1, days 4-7 after transfection), the “G Factor (G7)” value is reported as −8*. Also, the “X Factor” value in data set [1] is −48. For the same compound, the “pH (H20)” value in data set [2] was 7.23.
In the case of `CCOC(=O)c1ccc(C(C)=O)cc1` [ETHYL 4-ACETYLBENZOATE], in data set [1], the “G Factor (G14)” value is listed as 42, the “X Factor” value is reported as 49 and the “K Factor” value is 1. Also, the “pH (H20)” value in data set [2] was 7.59.
For `CCOC(=O)CCCC(C)=O` [ETHYL 4-ACETYLBUTYRATE] the same measures were 58, 51, 1 and 5.98.
Turning to `Nc1nc2ncc(CNc3ccc(C(=O)N[C@@H](CCC(=O)O)C(=O)O)cc3)nc2c(=O)[nH]1` [FOLIC ACID], in data set [1], the “G Factor (G14)” value was 24 and the “X Factor” value was −1.4. The “pH (H20)” value in data set [2] was determined as 6.
Consider `N[C@@H](CCC(=O)O)C(=O)O` [GLUTAMIC ACID], for which the “K Factor” value in data set [1] came to 2. Also, in data set [2], the “pH (H20)” value was determined as 4.2.
Take `O=C(O)CCCC(=O)O` [GLUTARIC ACID]: in data set [1], the “G Factor (G14)” value is −77 and the “X Factor” value came out at 22. The “pH (H20)” value in data set [2] came out at 3.85.
Regarding `C/C1=C2/[N-][C@H]([C@H](CC(N)=O)[C@@]2(C)CCC(=O)NC[C@H](C)OP(=O)([O-])O[C@H]2[C@@H](O)[C@@H](n3cnc4cc(C)c(C)cc43)O[C@@H]2CO)[C@]2(C)N=C(/C(C)=C3N=C(/C=C4N=C1[C@@H](CCC(N)=O)C\4(C)C)[C@@H](CCC(N)=O)[C@]\3(C)CC(N)=O)[C@@H](CCC(N)=O)[C@]2(C)CC(N)=O.[CH3-].[Co+3]` [METHYLCOBALAMIN], in data set [1], the “G Factor (G14)” value is 25 and the “X Factor” value was 1.
For `NCCC[C@H](N)C(=O)O` [ORNITHINE] the same measures were 28 and 16.
As to `O=C(O)CCCCC1CCSS1` (stereo not drawn) [α-lipoic acid, lipoic acid], the “results when substituted for benzoate buffer” value in data set [1] (used in conjunction with chondroitin sulfate as in plates 6 or 13 of Table 9) is listed as “comparable results”.
N-carboxymethylchitosan N,S-sulfate: the “effect on transient expression when present before or during the transfection step” value in data set [1] is recorded as “blocking effect”.
Same read-out and setting: the result for carboxymethylcellulose reads “blocking effect”.
dermatan sulfate: the “effect on transient expression when present before or during the transfection step” value in data set [1] is reported as “blocking effect”.
Regarding ethyoxy benzoic acid, the “effect on transient expression” value in data set [1] is listed as “capable of prolonging transient expression”.
For gentamicin [reference compound], in data set [1] (control plates 1A (with gentamicin) vs 1B (no gentamicin)), the “effect on protein production” value is on record as “somewhat suppressed protein production”.
heparan sulfate: in data set [1], the “effect on transient expression when present before or during the transfection step” value is on record as “blocking effect”.
Consider heparin [reference compound], for which, in data set [1], the “effect on transient expression when added after the transfection step” value was “effective in enhancing transient expression; also recorded: enhance transient expression” and the “effect on transient expression when present before or during the transfection step” value is recorded as “blocking effect; also recorded: blocked transient expression”.
hydroxypropyl guaran: the entries for the “effect on transient expression” value in data set [1] and in data set [1] (listed as Hydroxypropyl guarans) were “capable of prolonging transient expression” and “enhance transient expression to some degree”, respectively.
As for iso-propyl benzoic acid, the “effect on transient expression” value in data set [1] is “capable of prolonging transient expression”.
Same read-out and setting: the result for isobutyl benzoic acid reads “capable of prolonging transient expression”.
Same read-out and setting: under methoxy benzoic acid stands “capable of prolonging transient expression”.
The same measure, in the same setting: the result for t-butyl benzoic acid reads “capable of prolonging transient expression”.

These data come from patent publication US20030073654A1, “Stabilized transient gene expression” (Genespan Corporation, priority 1996, published 2003).
